Measurements reported in the NIST ThermoML archive (doi:10.1021/je900285w).
Numbers after ± are expanded uncertainties.

Legend:
[1] = molar heat capacity at constant pressure; conditions: 101.33 kPa, Crystal
[2] = Crystal; DTA
[3] = Molar enthalpy of transition or fusion; conditions: Crystal; DSC

OC[C@@H](O)[C@@H](O)[C@H](O)[C@H](O)CO [D-mannitol]
[1]
Conditions | molar heat capacity at constant pressure [J/K/mol]
80 K | 70.46 ± 1.4
80.42 K | 71.86 ± 1.4
84.12 K | 75.82 ± 1.5
85 K | 76.73 ± 1.5
87.06 K | 79 ± 1.5
90 K | 82.37 ± 1.6
90.04 K | 82.17 ± 1.6
93.09 K | 85.24 ± 1.7
95 K | 87.51 ± 1.7
96.04 K | 88 ± 1.7
99.05 K | 90.89 ± 1.8
100 K | 92.23 ± 1.8
102.11 K | 93.72 ± 1.8
105 K | 96.64 ± 1.8
105.11 K | 96.44 ± 1.8
108.05 K | 98.92 ± 1.9
110 K | 100.8 ± 1.9
111.06 K | 101.4 ± 1.9
114.14 K | 104 ± 1.9
115 K | 104.8 ± 1.9
117.16 K | 106.5 ± 1.9
120 K | 108.7 ± 2
120.11 K | 109 ± 2
123.13 K | 111.5 ± 2
125 K | 112.5 ± 2
126.22 K | 113.8 ± 2
129.26 K | 116.1 ± 2.1
130 K | 116.2 ± 2.1
132.27 K | 118.9 ± 2.1
135 K | 120 ± 2.1
135.24 K | 120.9 ± 2.1
138.18 K | 123 ± 2.1
140 K | 123.8 ± 2.2
141.2 K | 125.4 ± 2.2
144.28 K | 127.8 ± 2.2
145 K | 127.7 ± 2.2
147.31 K | 129.9 ± 2.2
150 K | 131.6 ± 2.3
150.31 K | 132.2 ± 2.3
153.28 K | 134.4 ± 2.3
155 K | 135.6 ± 2.3
156.23 K | 136.7 ± 2.3
159.25 K | 138.8 ± 2.3
160 K | 139.7 ± 2.4
162.37 K | 141.7 ± 2.4
165 K | 143.9 ± 2.4
165.49 K | 143.2 ± 2.4
168.58 K | 146.4 ± 2.4
170 K | 148.2 ± 2.5
171.61 K | 149.2 ± 2.5
174.59 K | 150.8 ± 2.5
175 K | 152.5 ± 2.5
177.6 K | 152.9 ± 2.5
180 K | 156.9 ± 2.6
180.59 K | 156.6 ± 2.6
183.61 K | 159.2 ± 2.6
185 K | 161.4 ± 2.6
186.66 K | 162.1 ± 2.6
189.7 K | 165 ± 2.7
190 K | 166 ± 2.7
192.75 K | 168.2 ± 2.7
195 K | 170.6 ± 2.7
195.81 K | 170.5 ± 2.7
198.93 K | 173.9 ± 2.8
200 K | 175.2 ± 2.8
202.13 K | 176.6 ± 2.8
205 K | 179.9 ± 2.8
205.3 K | 180.9 ± 2.9
208.4 K | 184.3 ± 2.9
210 K | 184.6 ± 2.9
211.46 K | 187.3 ± 2.9
214.49 K | 189.7 ± 3
215 K | 189.3 ± 3
217.58 K | 192.1 ± 3
220 K | 193.9 ± 3
220.74 K | 195.4 ± 3
223.88 K | 198.8 ± 3.1
225 K | 198.6 ± 3.1
226.99 K | 202.7 ± 3.1
230 K | 203.2 ± 3.1
230.03 K | 204.2 ± 3.2
233.09 K | 207.6 ± 3.2
235 K | 207.8 ± 3.2
236.15 K | 210.5 ± 3.2
239.22 K | 213.4 ± 3.3
242.24 K | 215.7 ± 3.3
245.33 K | 217.7 ± 3.3
248.42 K | 220 ± 3.3
251.42 K | 221.4 ± 3.4
254.48 K | 223.2 ± 3.4
257.61 K | 226.2 ± 3.4
260.73 K | 228 ± 3.4
263.83 K | 230.7 ± 3.5
266.98 K | 233.6 ± 3.5
270.15 K | 236.1 ± 3.5
273.22 K | 239.5 ± 3.6
276.28 K | 242.1 ± 3.6
279.35 K | 245.4 ± 3.7
282.41 K | 248.6 ± 3.7
285.44 K | 251.6 ± 3.7
288.45 K | 253.1 ± 3.8
291.43 K | 256 ± 3.8
294.39 K | 259 ± 3.8
297.49 K | 260.6 ± 3.8
300.61 K | 262.6 ± 3.9
303.63 K | 264.9 ± 3.9
306.66 K | 266.7 ± 3.9
309.69 K | 268.4 ± 3.9
312.78 K | 270.6 ± 4
315.92 K | 272.9 ± 4
319.06 K | 275.3 ± 4
322.19 K | 277.9 ± 4.1
325.3 K | 280.3 ± 4.1
328.4 K | 282.6 ± 4.1
331.49 K | 284.8 ± 4.1
334.56 K | 286.1 ± 4.2
337.63 K | 289 ± 4.2
340.68 K | 291.4 ± 4.2
343.78 K | 293.3 ± 4.3
346.92 K | 295.5 ± 4.3
350.05 K | 297.6 ± 4.3
353.16 K | 299.6 ± 4.3
356.26 K | 301.3 ± 4.4
359.31 K | 303.7 ± 4.4
362.51 K | 305.8 ± 4.4
365.68 K | 308.4 ± 4.4
368.86 K | 310.2 ± 4.5
372.04 K | 311.9 ± 4.5
375.21 K | 314 ± 4.5
378.35 K | 316.7 ± 4.5
381.44 K | 319 ± 4.6
384.52 K | 320.9 ± 4.6
387.64 K | 322.7 ± 4.6

Conditions | Molar enthalpy of transition or fusion [kcal/mol] | Normal melting temperature [°C]
[2] | – | 164.10 ± 0.43
[3] | 13.1 ± 0.813 | –
